Reference: the NIST ThermoML archive (doi:10.1016/j.jct.2005.03.002)

Experiment: xn = mol fraction of the nth substance listed
Conditions: 101.33 kPa, Liquid

CCOS(=O)(=O)[O-].CCn1cc[n+](C)c1 [1-ethyl-3-methylimidazolium ethyl sulfate] + O
mass density [kg/m3]
Conditions	278.2 K	288.2 K	298.2 K	308.2 K	318.2 K	328.2 K	338.2 K
x2 = 0	1243	1236.2	1229.6	1223	1216.2	1209.9	1203.7
x2 = 0.0503	1242.6	1235.5	1229	1222.6	1216.2	1209.8	1203.6
x2 = 0.0983	1241.6	1234.7	1227.9	1221.6	1215.1	1208.6	1202.5
x2 = 0.1495	1240.2	1233.5	1226.9	1220.5	1213.9	1207.5	1201.2
x2 = 0.1996	1239.2	1232.7	1226.2	1219.5	1213	1206.6	1200.1
x2 = 0.2505	1238.3	1231.1	1224.7	1218.3	1211.7	1205.3	1198.7
x2 = 0.2999	1236.7	1229.8	1223.1	1216.6	1210.1	1203.8	1198
x2 = 0.3504	1235.6	1228.5	1221.8	1215.3	1208.7	1202.4	1196.1
x2 = 0.3987	1233.4	1226.6	1220.1	1213.4	1206.8	1200.3	1194.3
x2 = 0.4505	1231.1	1224.4	1218	1211.2	1204.6	1198.6	1192.2
x2 = 0.4994	1228.7	1222	1215.4	1208.8	1202.2	1196.2	1189.9
x2 = 0.5495	1225.8	1219.1	1212.3	1205.8	1199.4	1193	1186.8
x2 = 0.6	1222.1	1215.3	1208.7	1202	1195.6	1189.2	1183
x2 = 0.6504	1217.2	1210.7	1203.8	1197.4	1190.8	1184.4	1178
x2 = 0.6999	1211.5	1204.7	1198.3	1191.5	1184.7	1178.2	1171.8
x2 = 0.7502	1203.2	1196.8	1190	1183.3	1176.6	1170	1163.8
x2 = 0.8	1192.4	1185.7	1178.9	1172.4	1165.6	1159.1	1153.1
x2 = 0.8499	1176.4	1169.9	1163.4	1156.8	1150	1143.9	1137.8
x2 = 0.9	1149.2	1142.9	1136.6	1130.3	1124.4	1117.8	1112.4
x2 = 0.94	1107.2	1101.8	1096.4	1090.8	–	–	–
